# Measured values reported in patent US12565489B2, “Heterocyclyl pyrimidines and triazines as novel fungicides” (Bayer Aktiengesellschaft, priority 2020, dated 2026).
# Tests used:
# [1] = test system: Colletotrichum lindemuthianum; test: In vivo preventive test on Colletotrichum lindemuthianum (leaf spot on bean); conditions: 168 h, 500 ppm of active ingredient, preventive spray on young bean plants, evaluated 7 days after inoculation, read-out: efficacy
# Description: The active ingredients were made soluble and homogenized in a mixture of Dimethyl sulfoxide/Acetone//Tween®80 and then diluted in water to the desired concentration. The young plants of bean were treated by spraying the active ingredient prepared as described above. Control plants were treated only with an aqueous solution of Acetone/Dimethyl sulfoxide/Tween® 80. After 24 hours, the plants were contaminated by spraying the leaves with an aqueous suspension of Colletotrichum lindemuthianum spores.
# [2] = test system: Colletotrichum lindemuthianum; test: Colletotrichum lindemuthianum in vitro cell test; format: cell-based; conditions: 144 h, 20 ppm of active ingredient, 6 days incubation, liquid culture, spectrometric measurement of mycelium growth, read-out: efficacy (inhibition of fungal growth)
# Outline: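 C. lindemuthianum spores were incubated with DMSO-solubilized compounds in liquid glucose-peptone-yeast extract medium, scoring inhibition of germination and mycelial growth. Mycelial growth was measured spectrometrically after 6 days. Inhibition was calculated from absorbance relative to compound-free control wells.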
# Alternaria alternata = Alternaria alternata in vitro cell test; format: cell-based; conditions: 120 h, 20 ppm of active ingredient, 5 days incubation, liquid culture, spectrometric measurement of mycelium growth, read-out: efficacy (inhibition of fungal growth)
# Outline: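 Spore suspension of A. alternata in glucose/mycological peptone/yeast extract liquid medium, with compounds added from DMSO solutions at a range of concentrations. After 5 days, mycelium growth was measured spectrometrically. Inhibition was expressed relative to absorbance of fungicide-free control wells.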
# Septoria tritici = Septoria tritici in vitro cell test; format: cell-based; conditions: Zymoseptoria tritici, 168 h; 20 ppm of active ingredient; 7 days incubation; liquid culture, spectrometric measurement of mycelium growth; read-out: efficacy (inhibition of fungal growth)
# Outline: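 Liquid culture of S. tritici spore suspension in defined mineral/sucrose medium with compounds added from DMSO solutions; measures inhibition of spore germination and mycelial growth. Growth inhibition derived from absorbance relative to untreated control wells.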
# Sphaerotheca fuliginea = test: In vivo preventive test on Sphaerotheca fuliginea (powdery mildew on cucurbits); conditions: Podosphaera fuliginea, 192 h; 500 ppm of active ingredient; preventive spray on young gherkin plants; evaluated 8 days after inoculation; read-out: efficacy
# Outline: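 Young gherkin plants were sprayed preventively with compound dissolved in DMSO/acetone/Tween 80 and diluted in water; controls got solvent only. Leaves were inoculated 24 hours later with an aqueous Sphaerotheca fuliginea spore suspension.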
# Pyricularia oryzae = test: microbe, parasite or virus in culture; format: cell-based; conditions: 120 h, read-out: efficacy (inhibition of fungal growth)
# Alternaria brassicae = test: In vivo preventive test on Alternaria brassicae (leaf spot on radish or cabbage); conditions: 144 h, 500 ppm of active ingredient, preventive spray on young radish or cabbage plants, evaluated 6 days after inoculation, read-out: efficacy
# Pyrenophora teres = Pyrenophora teres in vitro cell test; format: cell-based; conditions: 144 h, 20 ppm of active ingredient, 6 days incubation, liquid culture, spectrometric measurement of mycelium growth, read-out: efficacy (inhibition of fungal growth)
# Outline: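 Spore suspension grown in liquid glucose–peptone–yeast extract medium with compound added from DMSO solution. Mycelium growth read by absorbance after 6 days. Inhibition is relative to compound-free control wells.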
# Botrytis cinerea = test: In vivo preventive test on Botrytis cinerea (grey mould); conditions: 500 ppm of active ingredient, preventive spray on young gherkin or cabbage plants, evaluated 4 to 5 days after inoculation, read-out: efficacy
# Outline: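 Gherkin or cabbage seedlings sprayed preventively with compound (DMSO/acetone/Tween 80 formulation diluted in water); controls got solvent only. Leaves inoculated 24 h later by spraying aqueous B. cinerea spore suspension.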
SMILES,pest or weed control at 500 ppm [1] [%],inhibition at 20 ppm [2] [%],inhibition at 20 ppm (Alternaria alternata) [%],inhibition at 20 ppm (Septoria tritici) [%],pest or weed control at 500 ppm (Sphaerotheca fuliginea) [%],inhibition at 20 ppm (Pyricularia oryzae) [%],pest or weed control at 500 ppm (Alternaria brassicae) [%],inhibition at 20 ppm (Pyrenophora teres) [%],pest or weed control at 500 ppm (Botrytis cinerea) [%]
"Cc1ccc(CC2CON=C(c3nc(C4CC4)ncc3Oc3cccc(C(F)(F)F)c3)N2)c(C)c1 (racemic) [Compound I-001, (5RS)-3-{2-cyclopropyl-5-[3-(trifluoro-methyl)phenoxy]pyrimidin-4-yl}-5-(2,4-dimethylbenzyl)-5,6-dihydro-4H-1,2,4-oxadiazine]",90 to 100,90 to 100,90 to 100,90 to 100,90 to 100,80 to 89,90 to 100,90 to 100,90 to 100
Cc1ccc(C[C@@H]2CON=C(c3nc(C)ncc3Oc3cccc(Cl)c3F)N2)c(Cl)c1 (racemic) [Compound I-005],90 to 100,90 to 100,90 to 100,90 to 100,90 to 100,80 to 89,90 to 100,90 to 100,90 to 100
Cc1ccc(C[C@@H]2CON=C(c3nc(C)ncc3Oc3cccc(C4CC4)c3F)N2)c(C)c1 (racemic) [Compound I-016],90 to 100,90 to 100,90 to 100,90 to 100,90 to 100,90 to 100,90 to 100,90 to 100,90 to 100
"C#Cc1ccc(CC2CON=C(c3nc(C)ncc3Oc3cccc(C(F)(F)F)c3)N2)c(C)c1 (racemic) [Compound I-026, (5RS)-5-[(4-ethynyl-2-methyl-phenyl)methyl]-3-[2-methyl-5-[3-(trifluoromethyl)phenoxy]pyrimidin-4-yl]-5,6-dihydro-4H-1,2,4-oxadiazine]",90 to 100,90 to 100,90 to 100,90 to 100,90 to 100,90 to 100,90 to 100,90 to 100,90 to 100
Cc1ncc(Oc2cccc(C(F)(F)F)c2)c(C2=NOC[C@@H](Cc3ccc(C(F)F)cc3Cl)N2)n1 (racemic) [Compound I-033],80 to 89,90 to 100,90 to 100,90 to 100,90 to 100,70 to 79,90 to 100,90 to 100,90 to 100
C=Cc1ccc(C[C@@H]2CON=C(c3nc(C)ncc3Oc3cccc(C(F)(F)F)c3)N2)c(C)c1 (racemic) [Compound I-006],90 to 100,90 to 100,90 to 100,90 to 100,90 to 100,70 to 79,90 to 100,90 to 100,80 to 89
"Cc1ccc(CC2CON=C(c3nc(C)ncc3Oc3cccc(C(F)(F)F)c3)N2)c(C)c1 (racemic) [Compound I-002, (5RS)-5-(2,4-dimethylbenzyl)-3-{2-methyl-5-[3-(trifluoro-methyl)phenoxy]pyrimidin-4-yl}-5,6-dihydro-4H-1,2,4-oxadiazine]",90 to 100,90 to 100,90 to 100,90 to 100,90 to 100,90 to 100,90 to 100,90 to 100,90 to 100
"Cc1ncc(Oc2cccc(C(F)(F)F)c2)c(C2=NOCC(Cc3ccc(Br)cc3C)N2)n1 (racemic) [Compound I-021, (5RS)-5-[(4-bromo-2-methyl-phenyl)methyl]-3-[2-methyl-5-[3-(trifluoro-methyl)phenoxy]pyrimidin-4-yl]-5,6-dihydro-4H-1,2,4-oxadiazine]",90 to 100,90 to 100,90 to 100,90 to 100,90 to 100,90 to 100,90 to 100,90 to 100,90 to 100
